Measurements taken from US20090105189A1, “METHODS AND COMPOSITIONS FOR AMELIORATING OR INHIBITING DECLINE IN MEMORY OR INTELLIGENCE OR IMPROVING SAME” (priority 2006, published 2009).

Legend:
[1] = Brain CDP-choline levels after oral UMP in gerbils; assay type: in vivo, gerbil; conditions: UMP 1 mmole/kg by gavage, for 30 min after administration
Procedure: Brain tissue or cells was dissolved in methanol/chloroform (1:2 vol/vol), centrifuged, and the aqueous phase was dried under vacuum, resuspended in 100-200 μL water and separated by HPLC on an ion-exchange column (Alltech Hypersil APS-2, 5 μM, 250×4.6 mm). CDP-choline was eluted with a linear gradient of NaH2PO4 buffers A (1.75 mM NaH2PO4, pH 2.9) and B (500 mM, pH 4.5), which allowed resolution of CDP-choline from closely co-eluting substances such as UMP over 40 min. The retention time for CDP-choline was 9.5 min. Individual nucleotide peaks were detected by UV absorption at […], and were identified by comparison with the positions of authentic standards, as well as by the addition of nucleotide standards to selected samples.

gerbils [2] = assay: Food pellet learning assay (radial arm maze) in gerbils; assay type: in vivo, gerbil; conditions: young adult gerbils, 0.1, 0.5 or 2.5% UMP chow, three weeks
Procedure: Male young adult gerbils fed control or UMP-containing chow (0, 0.1, 0.5 or 2.5%) ad lib for three weeks were tested in a radial arm maze, consisting of a central chamber with four branches primed with a small food pellet at the end of each. Before testing, animals were fasted overnight; each animal was then placed in the central chamber and allowed up to 180 seconds to find all of the pellets. A shorter time required to find the pellets is indicative of improved learning and spatial memory.

Sprague Dawley rats [3] = assay: Visible platform water maze task in EC and IC rats on UMP diet; assay type: in vivo, rat; conditions: UMP-supplemented diet
Text: Four starting positions (north, south, east, west) were spaced around the perimeter of the tank, dividing the pool into four equal quadrants. For the visible platform version of the water maze, a white rubber ball (8 cm in diameter) was attached to the top of the submerged platform and protruded above the water surface. The platform could be used as a step to mount the ball to escape the water. A video camera was mounted directly above the water maze; this camera was linked to a computer with video tracking software to automatically record the escape latency (time to reach the platform), distance traveled (length of swim path taken to find the platform), and swim speed (HVS Image Ltd; Buckingham, UK). One week after completion of the 4-day/4 trials per day spatial training task, the rats from the above Example received 4 training sessions consisting of 4 trials (i.e., swims) per day. On each trial the animal was placed into the tank facing the wall at one of four designated start points (N, S, E, and W) and allowed to escape onto the visibly cued platform. A different starting point was used on each trial such that each starting point was used each day. In addition, the visible escape platform was placed in a different quadrant on each trial such that each of the four quadrants contained the escape platform once each day. […]

Sprague Dawley rats [4] = assay: Hidden platform water maze and probe test in EC and IC rats on UMP diet; assay type: in vivo, rat; conditions: for Rate of acquisition of hidden platform water maze task: 0.1% UMP-2Na+ diet 3 months
Procedure: (§1) Behavioral training was carried out between 10:00 AM-2:00 PM, in a blinded manner. Rats received a 4-d training session consisting of 4 trials (i.e., swims) per day to locate the hidden platform (1.5 cm below the water surface), which remained in the same position across trials for individual animals (i.e. within one of 4 quadrants). On each trial the animal was placed into the tank facing the wall at one of 4 designated start points (N, S, E, and W) and allowed to escape onto the hidden platform. A different starting point was used on each trial such that each starting point was used once each day. […] After mounting the platform, rats remained on the platform for 20 seconds. Following each trial, animals were removed from the maze and placed in a holding cage for a 30 second inter-trial interval (ITI). The latency to mount the escape platform was used as a measure of task acquisition.
(§2) On day 5, the rats were given a probe test. For this, the platform was removed and the swim path and time spent searching in the quadrant of the pool that previously contained the platform were measured over 60 s. This provides a measurement for the retention of spatial memory and indicates whether a spatial strategy was used during hidden platform training.

gerbils [5] = assay: Working memory and reference memory assay (modified radial arm maze) in gerbils; assay type: in vivo, gerbil; conditions: 0.1% UMP diet, four weeks
Text: Groups of ten gerbils fed control or 0.1% UMP diet for four weeks and trained to successfully find all of the food pellets as described above were then given a modified test, in which only two arms of the maze (but always the same two) contained food pellet rewards. In this test, a working memory error is one in which a gerbil revisits an arm from which it has already taken the pellet that day.

[6] = Plasma uridine levels after oral UMP in healthy human subjects; assay type: in vivo; conditions: humans, oral UMP 500, 1000 or 2000 mg; baseline and 1, 2, 4, 8 hr
Procedure: 1-milliliter (mL) samples of heparinized plasma were spiked with 1 μg fluoro-uridine for use as an internal standard, then deproteinized by adding methanol (5 mL).
All steps were performed at 4° C. Boronate affinity columns (Affigel-601, Bio-Rad) were primed with two 5-mL ammonium acetate washes, samples were applied, and columns were washed again with ammonium acetate, after which the nucleosides were eluted with 0.1 N formic acid (7 mL). Eluates were lyophilized, then reconstituted in 100 μL water for HPLC analysis.
HPLC analysis was performed using a Beckman System Gold apparatus (Beckman Instruments) equipped with a Rainin Dynamax Microsorb C18 column (3 μm packing; 4.6×100 mm) at room temperature. The standard HPLC method is described in Lopez-Coviella et al, (J. Neurochem 65: 889-894, 1995). For modified HPLC, an isocratic elution buffer was used containing 0.004 N potassium phosphate buffer (pH 5.8) and 0.1% methanol instead of formic acid, flowing at 1 mL/min and heated to 35°.
Eight healthy subjects (5 male, 3 female, 27-67 years old) were instructed to fast overnight and given sequentially increasing doses (500, 1000, and 2000 mg) of disodium UMP (Numico, Wageningen, NL) at 7-8 AM on each of three days, separated by at least a three-day washout period. All subjects were given lunch. Blood samples were drawn over an eight-hour period into heparinized tubes. […]

[7] = Body weight of rats on UMP-supplemented diet; assay type: in vivo, rat
Text: Animals were weighed weekly to ensure that UMP-treated and untreated rats were eating equivalent amounts of food. […] Also, there was no difference in body weight between the EC and IC groups.

Aging rats = assay: Morris water maze in aging rats on UMP diet; assay type: in vivo, rat; conditions: aging rats 18 months, 2.5% diet, six weeks
Text: Aging rats (I 8 months, 500 g) were fed a control diet or a diet containing 2.5% UMP diets for six weeks. They were then shown a hidden platform in a six-foot diameter pool of water, placed somewhere in each of the four quadrants of the pool in turn, and were allowed 90 seconds in each trial to attempt to relocate the platform by swimming, and the swimming time “mean escape latency” recorded. The set of four trials was repeated on each of four consecutive days. The platform was in the same place each day. This test, known as the Morris water maze, is an indicator of spatial memory.

Fischer 344 rats = assay: In vivo microdialysis of striatal neurotransmitter release in aged rats on UMP diet; parameters: species or system rat; conditions: for K+-evoked striatal DA release (basal = 100%): control 283±9%
rats [8] = conditions: IC rats
Procedure: as §1, §2
(§3) Animals were maintained as described for Example 13. For the first experiment (FIGS. 24-26), male pups were removed at postnatal d 23, separated into small groups, and allowed to acclimatize for 1 week. Pups were assigned to either the […] or IC condition; rats were matched according to body weight at PN day 23. […] Thus rats were fed the diets and were enriched or impoverished from 30-120 d of age.
For the second experiment, 4 groups of IC rats were utilized, as depicted below:
Four diets were prepared containing different amounts of CDP-choline. Mean weekly intakes were monitored for all rats, and the diets were adjusted so that rats would receive 500 mg/kg/d.
(§4) The water maze was a black circular tank 1.83 m in diameter and 0.55 m in height, filled with water (25 C) to a depth of 20 cm and located in a room containing several extramaze cues. Four starting positions (N, S, E, and W) were spaced around its perimeter, dividing the pool into 4 equal quadrants. The rectangular clear Plexiglas escape platform used for the spatial task (11×14×19 cm) was submerged at a depth of […]. For the cured version of the water maze, a white rubber ball 8 cm in diameter attached to the top of the submerged platform protruded above the water surface. The platform could be used as a step to mount the ball to escape from the water.

rats [9] = conditions: EC and IC rats, choline-supplemented vs control diet
Text: as §3, §4

[10] = aged rats, UMP diet 1 week or 6 weeks vs control
[11] = 500 mg/kg/d for 3 mo, 4 d of training

## O=c1ccn([C@@H]2O[C@H](COP(=O)([O-])[O-])[C@@H](O)[C@H]2O)c(=O)[nH]1.[Na+].[Na+] [UMP, uridine-5′-monophosphate disodium]
[1]
  Brain CDP-choline levels: rose significantly in a linear fashion
Gerbils [2]
  Time required to find the food pellets, radial arm maze: reduced the time required for gerbils to find the pellet in a dose-dependent manner
Sprague Dawley rats [3]
  Striatal-based (stimulus-response) memory, visible platform water maze: little or no effect
Sprague Dawley rats [4]; EC rats, vs EC-CONT (P<0.09)
  Rate of acquisition of hidden platform water maze task: acquired the task at a faster rate than EC-CONT rats
Sprague Dawley rats [4]; IC rats, vs IC-CONT
  Rate of acquisition of hidden platform water maze task: acquired the task at a significantly faster rate than did IC-CONT rats
Sprague Dawley rats [4]; IC rats, UMP diet, vs IC-CONT
  Time in the correct quadrant, 60 s probe test: spent significantly more time in the correct quadrant than IC-CONT rats
Gerbils [5]
  Reference memory errors: reduced numbers
  Working memory errors: reduced numbers
[6]
  Plasma uridine levels: increased in response to oral UMP in a dose-dependent fashion
[7]; Sprague Dawley EC/IC rats, 0.1% UMP-2Na+ diet, vs control groups
  Mean body weights: No significant differences in mean body weights
[7]; aged Fischer 344 rats, 2.5% UMP-2Na+ diet, 0-6 weeks
  Body weight: neither UMP-diet (vs. control) nor UMP×time interaction affected body weight
Aging rats
  Time required to reach the platform (mean escape latency), Morris water maze: statistically significant reduction in the time required to reach the location of the platform
Fischer 344 rats; aged rats, 2.5% UMP diet 1 or 6 weeks vs control
  Basal DA levels in striatal dialysate: did not affect
Fischer 344 rats; aged rats, 2.5% UMP diet 1 week, not significant
  K+-evoked striatal DA release (basal = 100%): 316±15%
Fischer 344 rats; aged rats, 2.5% UMP diet 6 weeks
  K+-evoked striatal DA release (basal = 100%): 341±21%
Fischer 344 rats; [10]
  Basal DOPAC levels in striatal dialysate: no effects
  Basal HVA levels in striatal dialysate: no effects
Fischer 344 rats; rats, dietary UMP
  Basal release of acetylcholine in corpus striatum: increase the basal release

## cytidine-diphosphocholine
Rats [8]; 500 mg/kg/d for 3 mo
  Escape latencies of initial trials on last 3 d of spatial training: restored normal behavior
  Swim time in target quadrant, 60-sec probe test: restored normal behavior
Rats [8]; [11]
  Distance traveled to find the hidden platform: restored normal behavior
  Escape latencies, hidden platform task: exhibited normal latencies
Rats [8]; high-choline diet for 3 mon vs untreated IC rats
  Escape latencies, hidden platform task (second experiment): different significantly from untreated IC rats
Rats [8]; high-choline diets for 3 mon
  Swim time in target quadrant, 60-sec probe test (second experiment): swam for a significantly longer time in the target quadrant
Rats [9]
  Escape latencies, visible platform task: No main effects of diet
